Measurements: patent US20230381261A1, “A Purified Extract Isolated from Agrimonia Coreana Nakai Containing Abundant Amount of Active Ingredient, the Preparation Thereof, the Composition Comprising the Same as an Active Ingredient for Preventing or Treating Inflammation, Allergy and Atopic Dermatitis and the Use Thereof” (priority 2020, published 2023)

What was measured:
CD4+ T cell = assay: Inhibition of CD4+ T cell proliferation (CFSE, flow cytometry, anti-CD3/anti-CD28 stimulation); format: cell-based; conditions: Homo sapiens; 10 μM BTP2 control; anti-CD3 and anti-CD28 stimulated CD4+ T cell; 72 hours; read-out: Inhibition rate on T cell proliferation (%)
Description: In order to determine the anti-immunological activity of inventive extract, following inhibition test of proliferation of T cell isolated from human blood was performed according to the procedure disclosed in the literature (J Immunol Jul. 15, 2002, 169 (2) 802-808).
In order to evaluate the anti-immunological activity of inventive extract, PBMC(peripheral blood mononuclear cell) and T cell which had been used in the various immunological analysis, were prepared from human blood using Fiicoll (GE17-5442-02, GE Healthcare) according to the previous literature (BIOPRESERVATION AND BIOBANKING, Volume 14, Number 5, 2016).
CD4+ T cell was carefully isolated from the isolated PBMC using by T cell isolation kit (130-096-533, Miltenyi biotec.) according to the manufacture's manual instruction.
The anti-immunological effect on T cell was evaluated by the inhibition effect on the proliferation of CD4+ T cell. […]
The T cell treated with test sample was incubated at 37° C. for 72 hours in 5% CO2 incubator (MCO-18AC, Panasonic) and then the cell was collected to be analyzed using Flow cytometry (BD LSRFortessa, BD Biosciences).

[1] = test system: IL-2 release in Jurkat T cell; assay: Inhibition of IL-2 release in Jurkat T cell (ELISA, anti-CD3/anti-CD28 stimulation); format: cell-based; conditions: Homo sapiens; 10 μM BTP2 control; anti-CD3 and anti-CD28 stimulated Jurkat T cell; 72 hours; read-out: Inhibition rate on IL-2 release (%)
Description: In order to determine the anti-immunological activity of inventive extract, following inhibition test of cytokine release in Jukrat T cell was performed according to the procedure disclosed in the literature (ARTHRITIS & RHEUMATISM Vol. 52, No. 9, September 2005, pp 2730-2739).
ELISA (Enzyme-linked immunosorbent assay) was performed to determine the release of IL-2 in Jukrat T cell.
Jukrat T cell (TIB-152, American Type Culture Collection(ATCC)) was inoculated into 96 well plates (2×10^5 cells/well) and stimulated with anti-CD3 and anti-CD 28.
In order to determine the inhibition effect on the IL-2 release of T cell of inventive extract, the test samples, i.e., the extract disclosed in Comparative Examples and Examples, were inoculated into the well plate to be 100 μg/mL with the stimuli of anti-CD3 and anti-CD 28.
10 μM BTP2([N-{4-[3,5-bis(Trifluoromethyl)-1H-pyrazol-1-yl]phenyl}-4-methyl-1,2,3-thiadiazole-5-carboxamide], 203890-M, Calbiochem) was used as a control group. […]
The release of cytokines was analyzed by IL-2 specifically reacting ELISA kit (BGK60568, Peprotech Inc. NJ, USA) and the content of IL-2 was determined according to the instruction manual of manufacture.

`Cc1nnsc1C(=O)Nc1ccc(-n2nc(C(F)(F)F)cc2C(F)(F)F)cc1` [BTP2, N-{4-[3,5-bis(Trifluoromethyl)-1H-pyrazol-1-yl]phenyl}-4-methyl-1,2,3-thiadiazole-5-carboxamide] showed an inhibition at 10 µM (CD4+ T cell) of 98.84 ± 0.0006% and an inhibition at 10 µM [1] of 90.3 ± 0.552%.
